Holding throughout (type): in vivo
Assay [1] deals with Puccinia coronata. Description: Controlling effect on Puccinia coronata by foliage application (pot experiment). The conditions noted are these: foliage spray on oat (cv. PC-38) seedlings, infected area after 1 day moist chamber and 8 days greenhouse at 20° C. As to the method: The following Test Examples illustrate the effects of the fungicide of the present invention. (I. Controlling effects on various plant diseases by foliage application (pot experiment)) A test compound was dissolved in a small amount of N,N-dimethylformamide, and the solution was diluted to a given concentration with distilled water containing a spreader. Thus, a liquid sample to be tested was prepared. The liquid sample was sprayed to test plants, and 24 hours thereafter, pathogens were inoculated by the method described below. […] The seeds of oat (cv.: PC-38) were sown in plastic cups (each 9 cm in diameter), followed by cultivation for 2 to 3 weeks. The test compound in the form of a solution or suspension was sprayed to the seedlings. Spores of Puccinia coronata cultured on oat leaves were collected, diluted about 10-fold with talc, and sprayed to the test plants to inoculate the plants with the pathogen. After the inoculation, the plants were kept in a moist chamber at 20° C. for 1 day and then in a greenhouse at 20° C. for 8 days. The infected area on the leaf was observed, and the percent control was calculated.

Assay [2] deals with Erysiphe graminis f. sp. tritici. Description: Controlling effect on Erysiphe graminis f. sp. tritici by foliage application (pot experiment). The conditions noted are these: foliage spray on wheat (cv. NORIN No. 61) seedlings, infected area after 10 days in greenhouse at 20° C. In a few lines: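 Wheat seedlings (cv. NORIN No. 61, 2-3 weeks old) sprayed with compound in DMF diluted in water with spreader, then inoculated with conidia 24 hours later. Kept in greenhouse at 20 °C for 10 days; percent control calculated from infected leaf area.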

Assay [3] relates to Sphaerotheca fuliginea. Description: Controlling effect on Sphaerotheca fuliginea by foliage application (pot experiment). The conditions noted are these: foliage spray on cucumber (cv. TSUKUBASHIROIBO) first leaves, infected area after 10 days in greenhouse at 20° C. In short, it runs like this:
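First leaves of cucumber seedlings, 2-3 weeks old, were sprayed with compound (DMF solution diluted in water with spreader). They were inoculated 24 h later with a Sphaerotheca fuliginea conidia spray and kept 10 days at 20° C in a greenhouse. Percent control was calculated from infected leaf area.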

For assay [4], the system named is Pyricularia oryzae. The conditions noted are these: foliage spray on rice seedlings (cv. […]), number of lesions six days after the inoculation.
In assay [5] the test system is Botrytis cinerea. Nature of the assay: Controlling effect on Botrytis cinerea by foliage application (pot experiment). The conditions noted are these: foliage spray on cucumber (cv. TSUKUBASHIROIBO) first leaves, mycelial disks, lesion diameter after 3 days in moist chamber at 20° C. As to the method:
The following Test Examples illustrate the effects of the fungicide of the present invention. (I. Controlling effects on various plant diseases by foliage application (pot experiment)) A test compound was dissolved in a small amount of N,N-dimethylformamide, and the solution was diluted to a given concentration with distilled water containing a spreader. Thus, a liquid sample to be tested was prepared. The liquid sample was sprayed to test plants, and 24 hours thereafter, pathogens were inoculated by the method described below. […] The seeds of cucumber ([…]) were sown in plastic cups (each 9 cm in diameter), followed by cultivation for 2 to 3 weeks. The test compound in the form of a solution or suspension was sprayed to the surface of their first leaves, and mycelial disks (4 mm φ) of Botrytis cinerea cultured on the potato sucrose agar medium were put on the leaf surfaces to inoculate. the cucumber seedlings with the pathogen. The plants were kept in a moist chamber at 20° C. for 3 days. The diameter of the lesions on the leaves was measured and the percent control was calculated.

For assay [6], the system named is Pseudoperonospora cubensis. Description: Controlling effect on Pseudoperonospora cubensis by foliage application (pot experiment). The conditions noted are these: foliage spray on cucumber (var. TSUKUBASHIROIBO) first leaves, lesion area after 10 days in moist chamber at 20° C. In short, it runs like this: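 Cucumber plants grown 2–3 weeks were sprayed on first leaves with compound (DMF solution diluted in water with spreader); 24 h later, Pseudoperonospora cubensis zoosporangia suspension dropped on leaves. Plants held in moist chamber at 20° C for 10 days; lesion area observed and percent control calculated.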

`CON=C(c1ccccc1COc1ccccc1)n1ccnc1` [Compound No. 1]: the “Controllng effect on Puccinia coronata by foliage application at 500 ppm (percent control)” value (“Controllng effect … (percent control)” for short) in assay [1] stood at 97 percent control. Moreover, the “Controlling effect on ErYsiphe graminis f. sp. tritici by foliage application at 500 ppm (percent control)” value in assay [2] was found to be 90 percent control. Moreover, the “Controlling effect on Sphaerotheca fuliginea by foliage application at 500 ppm (percent control)” value in assay [3] is 100 percent control. Also, the “Controlling effect on PYricularia orYzae by foliage application at 500 ppm (percent control)” value in assay [4] was determined as 90 percent control. Besides, the “Controlling effect on Botrytis cinerea by foliage application at 500 ppm (percent control)” value in assay [5] came out at 100 percent control.
As to `CCON=C(c1ccccc1COc1ccccc1)n1ccnc1` [Compound No. 61], in assay [1], the “Controllng effect … (percent control)” value was 97 percent control. Further, in assay [2], the “Controlling effect on ErYsiphe graminis f. sp. tritici by foliage application at 500 ppm (percent control)” value turned out to be 97 percent control. In assay [4], the “Controlling effect on PYricularia orYzae by foliage application at 500 ppm (percent control)” value turned out to be 97 percent control. Further, in assay [5], the “Controlling effect on Botrytis cinerea by foliage application at 500 ppm (percent control)” value turned out to be 100 percent control.
As to `CON=C(c1ccccc1COc1ccccc1C)n1ccnc1` [Compound No. 13], in assay [1], the “Controllng effect … (percent control)” value is 97 percent control. The “Controlling effect on ErYsiphe graminis f. sp. tritici by foliage application at 500 ppm (percent control)” value in assay [2] was determined as 90 percent control. Besides, the “Controlling effect on Sphaerotheca fuliginea by foliage application at 500 ppm (percent control)” value in assay [3] is on record as 100 percent control. Also, the “Controlling effect on PYricularia orYzae by foliage application at 500 ppm (percent control)” value in assay [4] is recorded as 90 percent control. Further, the “Controlling effect on Botrytis cinerea by foliage application at 500 ppm (percent control)” value in assay [5] came to 70 percent control.
As to `C=CCON=C(c1ccccc1COc1ccccc1)n1ccnc1` [Compound No. 81], the “Controllng effect … (percent control)” value in assay [1] is on record as 97 percent control. Moreover, the “Controlling effect on ErYsiphe graminis f. sp. tritici by foliage application at 500 ppm (percent control)” value in assay [2] stood at 97 percent control. In assay [4], the “Controlling effect on PYricularia orYzae by foliage application at 500 ppm (percent control)” value amounted to 97 percent control. In addition, the “Controlling effect on Botrytis cinerea by foliage application at 500 ppm (percent control)” value in assay [5] is 90 percent control.
`CON=C(c1nnco1)c1ccccc1COc1ccc(Cl)c(Cl)c1` [compound 732]: the “Controlling effect on Pseudoperonospora cubensis by foliage application at 500 ppm (percent control)” value in assay [6] came out at 100 percent control. In addition, the “Controlling effect on ErYsiphe graminis f. sp. tritici by foliage application at 500 ppm (percent control)” value in assay [2] is 70 percent control. Further, in assay [3], the “Controlling effect on Sphaerotheca fuliginea by foliage application at 500 ppm (percent control)” value is 100 percent control. For the same molecule, in assay [4], the “Controlling effect on PYricularia orYzae by foliage application at 500 ppm (percent control)” value is 70 percent control. Moreover, the “Controlling effect on Botrytis cinerea by foliage application at 500 ppm (percent control)” value in assay [5] was determined as 70 percent control.
As for `CON=C(c1cc(C)no1)c1ccccc1COc1ccc(Cl)cc1` (single isomer, unassigned) [607A], the “Controlling effect on Pseudoperonospora cubensis by foliage application at 500 ppm (percent control)” value in assay [6] amounted to 97 percent control. In assay [2], the “Controlling effect on ErYsiphe graminis f. sp. tritici by foliage application at 500 ppm (percent control)” value is on record as 90 percent control. Besides, in assay [3], the “Controlling effect on Sphaerotheca fuliginea by foliage application at 500 ppm (percent control)” value is 90 percent control. The “Controlling effect on PYricularia orYzae by foliage application at 500 ppm (percent control)” value in assay [4] was 90 percent control. Further, in assay [5], the “Controlling effect on Botrytis cinerea by foliage application at 500 ppm (percent control)” value is recorded as 70 percent control.
Take `OC(c1ccc(Cl)cc1)(c1cncnc1)c1ccccc1Cl` (stereo not drawn) [Fenarimol, reference compound]: the “Controllng effect … (percent control)” value in assay [1] is recorded as 97 percent control. Besides, the pest or weed control at 500 ppm in assay [2] (Blumeria graminis, foliar, 240 h, read-out: Controlling effect on ErYsiphe graminis f. sp. tritici by foliage application at 500 ppm (percent control)) was 97%; in assay [3] (Podosphaera fuliginea, in Cucumis sativus, foliar, 240 h, read-out: Controlling effect on Sphaerotheca fuliginea by foliage application at 500 ppm (percent control)), 97%. Besides, the “Controlling effect on Botrytis cinerea by foliage application at 500 ppm (percent control)” value in assay [5] is listed as 97 percent control.
Consider `CON=C(c1ccon1)c1ccccc1COc1ccc(C)cc1` (mixture of isomers) [compound 314], for which the “Controlling effect on Pseudoperonospora cubensis by foliage application at 500 ppm (percent control)” value in assay [6] is 100 percent control. In assay [2], the “Controlling effect on ErYsiphe graminis f. sp. tritici by foliage application at 500 ppm (percent control)” value was 70 percent control. Also, in assay [3], the “Controlling effect on Sphaerotheca fuliginea by foliage application at 500 ppm (percent control)” value is reported as 100 percent control. Besides, in assay [4], the “Controlling effect on PYricularia orYzae by foliage application at 500 ppm (percent control)” value was 90 percent control. The “Controlling effect on Botrytis cinerea by foliage application at 500 ppm (percent control)” value in assay [5] was 70 percent control.
As for `CON=C(c1nnco1)c1ccccc1COc1cccc(C)c1` [compound 713], the “Controlling effect on Pseudoperonospora cubensis by foliage application at 500 ppm (percent control)” value in assay [6] amounted to 100 percent control. In addition, the “Controlling effect on ErYsiphe graminis f. sp. tritici by foliage application at 500 ppm (percent control)” value in assay [2] was determined as 90 percent control. Besides, the “Controlling effect on Sphaerotheca fuliginea by foliage application at 500 ppm (percent control)” value in assay [3] amounted to 100 percent control. The “Controlling effect on PYricularia orYzae by foliage application at 500 ppm (percent control)” value in assay [4] is 97 percent control. Further, the “Controlling effect on Botrytis cinerea by foliage application at 500 ppm (percent control)” value in assay [5] was 70 percent control.
Regarding `CON=C(c1ccccc1COc1ccc(Cl)cc1C)c1nccn1C` (single isomer, unassigned) [141A], the “Controlling effect on Pseudoperonospora cubensis by foliage application at 500 ppm (percent control)” value in assay [6] is 100 percent control. Besides, the “Controlling effect on ErYsiphe graminis f. sp. tritici by foliage application at 500 ppm (percent control)” value in assay [2] is on record as 90 percent control. Further, the “Controlling effect on Sphaerotheca fuliginea by foliage application at 500 ppm (percent control)” value in assay [3] came out at 100 percent control. For the same molecule, in assay [4], the “Controlling effect on PYricularia orYzae by foliage application at 500 ppm (percent control)” value is on record as 70 percent control. Moreover, the “Controlling effect on Botrytis cinerea by foliage application at 500 ppm (percent control)” value in assay [5] is on record as 90 percent control.
Consider `CON=C(c1ccccc1COc1cccc(C(F)(F)F)c1)c1nccn1C` (single isomer, unassigned) [122A], for which, in assay [6], the “Controlling effect on Pseudoperonospora cubensis by foliage application at 500 ppm (percent control)” value amounted to 100 percent control. Moreover, the “Controlling effect on ErYsiphe graminis f. sp. tritici by foliage application at 500 ppm (percent control)” value in assay [2] turned out to be 97 percent control. In addition, the “Controlling effect on Sphaerotheca fuliginea by foliage application at 500 ppm (percent control)” value in assay [3] was 100 percent control. For the same molecule, in assay [4], the “Controlling effect on PYricularia orYzae by foliage application at 500 ppm (percent control)” value was determined as 97 percent control. For the same molecule, the “Controlling effect on Botrytis cinerea by foliage application at 500 ppm (percent control)” value in assay [5] is recorded as 70 percent control.
Turning to `CON=C(c1ccccc1COc1cccc(Cl)c1)c1nccn1C` (single isomer, unassigned) [106A], the “Controlling effect on Pseudoperonospora cubensis by foliage application at 500 ppm (percent control)” value in assay [6] is given as 100 percent control. In addition, the “Controlling effect on ErYsiphe graminis f. sp. tritici by foliage application at 500 ppm (percent control)” value in assay [2] is given as 70 percent control. The “Controlling effect on Sphaerotheca fuliginea by foliage application at 500 ppm (percent control)” value in assay [3] came out at 100 percent control. Also, the “Controlling effect on PYricularia orYzae by foliage application at 500 ppm (percent control)” value in assay [4] came to 97 percent control. The “Controlling effect on Botrytis cinerea by foliage application at 500 ppm (percent control)” value in assay [5] came to 70 percent control.
`CON=C(c1cc(C)no1)c1ccccc1COc1ccccc1Cl` (single isomer, unassigned) [605A]: the “Controlling effect on Pseudoperonospora cubensis by foliage application at 500 ppm (percent control)” value in assay [6] is 100 percent control. Besides, the “Controlling effect on ErYsiphe graminis f. sp. tritici by foliage application at 500 ppm (percent control)” value in assay [2] was found to be 90 percent control. The “Controlling effect on Sphaerotheca fuliginea by foliage application at 500 ppm (percent control)” value in assay [3] is listed as 100 percent control. Besides, the “Controlling effect on PYricularia orYzae by foliage application at 500 ppm (percent control)” value in assay [4] came to 90 percent control. Moreover, in assay [5], the “Controlling effect on Botrytis cinerea by foliage application at 500 ppm (percent control)” value is given as 70 percent control.
`CON=C(c1ccccc1COc1ccccc1Cl)n1cncc1C` [compound 205]: the “Controllng effect … (percent control)” value in assay [1] was determined as 70 percent control. Also, the “Controlling effect on Sphaerotheca fuliginea by foliage application at 500 ppm (percent control)” value in assay [3] was 100 percent control. Further, the “Controlling effect on PYricularia orYzae by foliage application at 500 ppm (percent control)” value in assay [4] is given as 90 percent control. In assay [5], the “Controlling effect on Botrytis cinerea by foliage application at 500 ppm (percent control)” value came out at 70 percent control.
